Laboratory results taken from ChEMBL document CHEMBL1145279, “Discovery and development of dimeric podocarpic acid leads as potent agonists of liver X receptor with HDL cholesterol raising activity in mice and hamsters” (Bioorg Med Chem Lett, 2005).
pEC50, pIC50: −log10 of the molar value.

Key:
[1] = biological target: T1, Oxysterols receptor LXR-beta (Homo sapiens, UniProt P55055); experiment: Effective concentration for cofactor association with recombinant liver X receptor-beta
T1 sequence (P55055 whole entry): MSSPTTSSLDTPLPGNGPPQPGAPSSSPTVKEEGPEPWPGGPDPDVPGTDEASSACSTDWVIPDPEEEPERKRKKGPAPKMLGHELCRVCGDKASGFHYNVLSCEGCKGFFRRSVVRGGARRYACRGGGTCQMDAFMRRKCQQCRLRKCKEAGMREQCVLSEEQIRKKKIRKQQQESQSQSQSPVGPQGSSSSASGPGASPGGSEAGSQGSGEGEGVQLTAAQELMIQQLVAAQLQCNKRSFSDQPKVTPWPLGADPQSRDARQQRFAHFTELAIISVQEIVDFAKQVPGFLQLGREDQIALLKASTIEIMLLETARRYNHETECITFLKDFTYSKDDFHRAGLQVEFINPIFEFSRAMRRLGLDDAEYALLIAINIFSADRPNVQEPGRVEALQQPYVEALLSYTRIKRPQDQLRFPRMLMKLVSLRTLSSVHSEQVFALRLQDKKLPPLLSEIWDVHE

[2] = biological target: T2, Oxysterols receptor LXR-alpha (Homo sapiens, UniProt Q13133); experiment: Effective concentration for cofactor association with recombinant liver X receptor-alpha
T2 sequence (Q13133 whole entry): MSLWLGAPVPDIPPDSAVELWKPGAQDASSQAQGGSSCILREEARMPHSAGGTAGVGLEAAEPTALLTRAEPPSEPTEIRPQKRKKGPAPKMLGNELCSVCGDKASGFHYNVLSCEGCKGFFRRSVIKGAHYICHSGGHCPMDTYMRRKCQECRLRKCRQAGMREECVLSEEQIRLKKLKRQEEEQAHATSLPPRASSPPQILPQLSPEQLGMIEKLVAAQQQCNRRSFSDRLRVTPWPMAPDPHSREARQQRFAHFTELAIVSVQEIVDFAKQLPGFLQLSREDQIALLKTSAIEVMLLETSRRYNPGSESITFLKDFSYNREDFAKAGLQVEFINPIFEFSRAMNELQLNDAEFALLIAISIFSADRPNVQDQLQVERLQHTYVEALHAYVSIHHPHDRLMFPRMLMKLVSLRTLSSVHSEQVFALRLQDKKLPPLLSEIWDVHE

[3] = biological target: T3, Oxysterols receptor LXR-beta (Homo sapiens) (UniProt P55055); experiment: Percent inhibition of [3H2]-F3-methyl AA (1) binding to liver X receptor-beta at 100 uM
T3 sequence (whole entry): T1 sequence (P55055 whole entry)

[4] = biological target: T4, Oxysterols receptor LXR-alpha (Homo sapiens) (UniProt Q13133); experiment: Percent inhibition of [3H2]-F3-methyl AA (1) binding to liver X receptor-alpha at 100 uM
T4 sequence (whole entry): T2 sequence (Q13133 whole entry)

[5] = biological target: T1, Oxysterols receptor LXR-beta; experiment: Displacement of [3H2]-F3-methyl AA (1) from liver X receptor-beta in SPA assay; Not active
[6] = biological target: T2, Oxysterols receptor LXR-alpha; experiment: Displacement of [3H2]-F3-methyl AA (1) from liver X receptor-alpha in SPA assay; Not active
[7] = biological target: T1, Oxysterols receptor LXR-beta; experiment: Effective concentration for cofactor association with recombinant liver X receptor-beta; Not active
[8] = biological target: T2, Oxysterols receptor LXR-alpha; experiment: Effective concentration for cofactor association with recombinant liver X receptor-alpha; Not active
[9] = biological target: T2, Oxysterols receptor LXR-alpha; experiment: Displacement of [3H2]-F3-methyl AA (1) from liver X receptor-alpha in SPA assay
[10] = biological target: T2, Oxysterols receptor LXR-alpha; experiment: Effective concentration against liver X receptor-alpha in HEK293 cell transactivation assay; type: cell-based
[11] = biological target: T1, Oxysterols receptor LXR-beta; experiment: Displacement of [3H2]-F3-methyl AA (1) from liver X receptor-beta in SPA assay
[12] = biological target: T1, Oxysterols receptor LXR-beta; experiment: Effective concentration against liver X receptor-beta in HEK293 cell transactivation assay; type: cell-based

IC50 [5] | IC50 [6] | EC50 [7] | EC50 [8] | pIC50 [9] | pEC50 [10] | SMILES | pEC50 [1] | pEC50 [2] | pIC50 [11] | further results
– | – | – | – | – | – | CC(C)CC[C@@H](O)[C@@H](C)[C@H]1CC[C@H]2[C@@H]3CC=C4C[C@@H](O)CC[C@]4(C)[C@H]3CC[C@]12C [22(R)-HYDROXYCHOLESTEROL] | 4.82 | 4.82 | – | inhibition [3]: 60%; inhibition [4]: 70%
Not Active | Not Active | Not Active | Not Active | – | – | C[C@]1(C(=O)O)CCC[C@]2(C)c3cc(OP(=O)(O)Oc4ccc5c(c4)[C@@]4(C)CCC[C@](C)(C(=O)O)[C@@H]4CC5)ccc3CC[C@@H]12 | – | – | – | –
– | – | – | – | 7.45 | 5.75 | CCCc1c(OCCCSc2ccc(CC(=O)O)cc2Cl)ccc2c(C(F)(F)F)noc12 | – | 7.45 | – | pEC50 ([10]; hek293): 5.75
– | – | – | – | 8.70 | 8.00 | CC(=O)Oc1ccc2c(c1)[C@@]1(C)CCCC(C)(C(=O)OC(=O)[C@@]3(C)CCC[C@]4(C)c5cc(OC(C)=O)ccc5CC[C@@H]34)[C@@H]1CC2 (stereo partly specified) | 8.70 | 8.70 | 8.70 | pEC50 [12]: 8.00
Not Active | Not Active | Not Active | Not Active | – | – | CC1OC(Oc2cc3c(cc2-c2cc4c(cc2O)[C@@]2(C)CCC[C@](C)(C(=O)O)[C@@H]2CC4)CC[C@H]2[C@@](C)(C(=O)O)CCC[C@]32C)C(O)C(O)C1O (stereo partly specified) | – | – | – | –

SMILES | IC50 [5] | IC50 [6] | EC50 [7] | EC50 [8] | pIC50 [9] | pEC50 [10] | pEC50 [1] | pEC50 [2] | pIC50 [11] | further results
C[C@]1(C(=O)O)CCC[C@]2(C)c3cc(O)ccc3CC[C@@H]12 [PODOCARIC ACID] | – | – | – | – | < 4.30 | – | < 4.30 | < 4.30 | < 4.30 | –
